# According to patent US10450270B2, “Glyoxamide substituted pyrrolamide derivatives and the use thereof as medicaments for the treatment of hepatitis B” (Janssen Sciences Ireland UC, priority 2013, dated 2019):
# Legend:
# HBV [1] = assay: Anti-HBV activity, HepG2.2.15 stable transfected cell line, HBV DNA from secreted virions by realtime PCR; assay type: cell-based; settings: Hepatitis B virus
# HBV [2] = assay: Anti-HBV activity, HepG2.117 inducible HBV producing cell line (Tet-off), intracellular HBV DNA by realtime PCR; assay type: cell-based; settings: Hepatitis B virus
# [3] = Cytotoxicity in HepG2 cells, Resazurin viability assay; settings: human, HepG2 cells
# [4] = 144 h, HepG2.2.15 cells, 6 days of treatment, HBV DNA from secreted virions, read-out: HepG 2.2.15 EC50
# [5] = 72 h, HepG2.117 cells, 3 days of treatment, intracellular HBV DNA, read-out: HepG2 117 EC50
# [6] = HepG2.2.15, 144 h, read-out: HepG 2.2.15 EC50 (μM)
# [7] = HepG2.117, 72 h, read-out: HepG2 117 EC50 (μM)
SMILES,EC50 (HBV [1]; [4]) [µM],EC50 (HBV [2]; [5]) [µM],melting point [°C],CC50 at 4 days [3] [nM],EC50 (HBV [1]; [6]) [µM],EC50 (HBV [2]; [7]) [µM]
"CC[C@@H](C)NC(=O)C(=O)c1cc(C(=O)Nc2ccc(F)c(C)c2)n(C)c1 [Compound 1, (R)-4-(2-(sec-butylamino)-2-oxoacetyl)-N-(4-fluoro-3-methylphenyl)-1-methyl-1H-pyrrole-2-carboxamide]",0.014,0.1,136.5,> 25000,–,–
"Cc1cc(NC(=O)c2cc(C(=O)C(=O)NC3(C)COC3)cn2C)ccc1F [Compound 4, N-(4-fluoro-3-methylphenyl)-1-methyl-4-(2-(3-methyloxetan-3-ylamino)-2-oxoacetyl)-1H-pyrrole-2-carboxamide]",–,–,145.1,> 25000,0.013,0.015
"Cc1cc(NC(=O)c2cc(C(=O)C(=O)N[C@H](C)C(F)(F)F)cn2C)ccc1F [Compound 5, (R)—N-(4-fluoro-3-methylphenyl)-1-methyl-4-(2-oxo-2-(1,1,1-trifluoropropan-2-ylamino)acetyl)-1H-pyrrole-2-carboxamide]",0.056,0.099,156.9,> 25000,–,–
"Cc1cc(NC(=O)c2cc(C(=O)C(=O)N[C@H]3CCOC3)cn2C)ccc1F [Compound 6, (S)—N-(4-fluoro-3-methylphenyl)-1-methyl-4-(2-oxo-2-(tetrahydrofuran-3-ylamino)acetyl)-1H-pyrrole-2-carboxamide]",–,–,155.7,> 25000,0.047,0.19
"COC(=O)C(C)(C)NC(=O)C(=O)c1cc(C(=O)Nc2ccc(F)c(C)c2)n(C)c1 [Compound 7, methyl 2-(2-(5-(4-fluoro-3-methylphenylcarbamoyl)-1-methyl-1H-pyrrol-3-yl)-2-oxoacetamido)-2-methylpropanoate]",–,–,161,> 25000,0.21,0.058
"Cn1cc(C(=O)C(=O)NC(C)(C)C)cc1C(=O)Nc1ccc(F)c(F)c1 [Compound 10, 4-(2-(tert-butylamino)-2-oxoacetyl)-N-(3,4-difluorophenyl)-1-methyl-1H-pyrrole-2-carboxamide]",0.072,0.042,170.7,> 25000,–,–
"Cn1cc(C(=O)C(=O)NC2(C)COC2)cc1C(=O)Nc1ccc(F)c(F)c1 [Compound 11, N-(3,4-difluorophenyl)-1-methyl-4-(2-(3-methyloxetan-3-ylamino)-2-oxoacetyl)-1H-pyrrole-2-carboxamide]",0.05,0.096,180.7,> 25000,–,–
"Cc1c(C(=O)C(=O)N[C@H](C)C(F)(F)F)c(Cl)c(C(=O)Nc2ccc(F)c(C#N)c2)n1C [Compound 30, 3-chloro-N-(3-cyano-4-fluoro-phenyl)-1,5-dimethyl-4-[2-oxo-2-[[(1R)-2,2,2-trifluoro-1-methyl-ethyl]amino]acetyl]pyrrole-2-carboxamide]",< 0.004,0.003,–,> 25000,–,–
"C[C@@H](NC(=O)C(=O)c1c(Cl)c(C(=O)Nc2ccc(F)c(C#N)c2)n(C)c1C1CC1)C(F)(F)F [Compound 31, 3-chloro-N-(3-cyano-4-fluoro-phenyl)-5-cyclopropyl-1-methyl-4-[2-oxo-2-[[(1R)-2,2,2-trifluoro-1-methyl-ethyl]amino]acetyl]pyrrole-2-carboxamide]",0.012,0.019,–,> 25000,–,–
"Cc1c(C(=O)C(=O)NC(C)(C)C)c(Cl)c(C(=O)Nc2ccc(F)c(C#N)c2)n1C [Compound 32, 4-[2-(tert-butylamino)-2-oxo-acetyl]-3-chloro-N-(3-cyano-4-fluoro-phenyl)-1,5-dimethyl-pyrrole-2-carboxamide]",< 0.004,< 0.004,–,> 25000,–,–
